ChEMBL document CHEMBL5653631, “A Potent and Selective ULK1 Inhibitor Suppresses Autophagy and Sensitizes Cancer Cells to Nutrient Stress” (iScience, 2018)

How the values were obtained:
[1] = target: Serine/threonine-protein kinase 26 (Homo sapiens) (UniProt Q9P289); assay: Inhibition of human recombinant MST4 at 500 nM related to control ULK1
[2] = target: T1, Dual specificity protein kinase TTK (Homo sapiens) (UniProt P33981); assay: Inhibition of human recombinant TTK at 500 nM in presence of ATP by radiometric assay relative to control
T1 sequence (whole entry): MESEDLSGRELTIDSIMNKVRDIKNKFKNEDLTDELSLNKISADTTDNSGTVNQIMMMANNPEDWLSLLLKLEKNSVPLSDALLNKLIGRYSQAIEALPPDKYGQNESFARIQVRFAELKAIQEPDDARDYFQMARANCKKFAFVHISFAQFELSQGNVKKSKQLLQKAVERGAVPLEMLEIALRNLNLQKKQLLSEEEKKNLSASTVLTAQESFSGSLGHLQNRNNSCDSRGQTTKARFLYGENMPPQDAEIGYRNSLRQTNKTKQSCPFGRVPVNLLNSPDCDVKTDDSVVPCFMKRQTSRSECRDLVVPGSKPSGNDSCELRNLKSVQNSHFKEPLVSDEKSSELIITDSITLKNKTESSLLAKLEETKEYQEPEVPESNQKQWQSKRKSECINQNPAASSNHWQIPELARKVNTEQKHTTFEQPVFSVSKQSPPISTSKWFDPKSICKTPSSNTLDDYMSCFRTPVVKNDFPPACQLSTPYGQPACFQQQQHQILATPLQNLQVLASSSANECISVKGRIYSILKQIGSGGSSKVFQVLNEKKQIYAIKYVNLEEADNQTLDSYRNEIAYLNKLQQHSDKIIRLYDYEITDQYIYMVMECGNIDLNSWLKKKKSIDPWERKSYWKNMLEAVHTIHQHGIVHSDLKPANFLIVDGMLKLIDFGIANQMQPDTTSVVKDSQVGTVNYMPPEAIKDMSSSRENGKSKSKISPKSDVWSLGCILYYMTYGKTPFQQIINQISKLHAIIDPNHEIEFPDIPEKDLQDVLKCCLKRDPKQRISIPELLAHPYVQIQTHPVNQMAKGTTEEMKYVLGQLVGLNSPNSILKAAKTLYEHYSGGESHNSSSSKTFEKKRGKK

[3] = target: T2, Testis-specific serine/threonine-protein kinase 4 (Homo sapiens) (UniProt Q6SA08); assay: Inhibition of human recombinant TSSK4 at 500 nM related to control ULK1
T2 sequence (whole entry): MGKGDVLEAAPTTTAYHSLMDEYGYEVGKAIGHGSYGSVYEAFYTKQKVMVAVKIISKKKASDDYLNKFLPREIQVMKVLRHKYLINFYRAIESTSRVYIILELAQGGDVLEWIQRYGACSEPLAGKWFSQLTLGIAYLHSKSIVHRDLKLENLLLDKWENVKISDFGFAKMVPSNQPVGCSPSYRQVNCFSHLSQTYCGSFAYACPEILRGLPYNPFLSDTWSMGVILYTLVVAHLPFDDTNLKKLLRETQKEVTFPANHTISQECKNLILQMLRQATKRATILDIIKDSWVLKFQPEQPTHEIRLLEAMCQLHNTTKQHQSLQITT

[4] = target: Death-associated protein kinase 2 (Homo sapiens) (UniProt Q9UIK4); assay: Inhibition of human recombinant DAPK2 at 500 nM related to control ULK1
[5] = target: Tyrosine-protein kinase SYK (Homo sapiens) (UniProt P43405); assay: Inhibition of human recombinant SYK at 15 nM in presence of ATP by radiometric assay relative to control
[6] = target: Tau-tubulin kinase 2 (Homo sapiens) (UniProt Q6IQ55); assay: Inhibition of human recombinant TTBK2 at 15 nM in presence of ATP by radiometric assay relative to control
[7] = target: Calcium/calmodulin-dependent protein kinase type 1D (Homo sapiens) (UniProt Q8IU85); assay: Inhibition of human recombinant CaMK1d at 40 nM related to control ULK1
[8] = target: T3, Ephrin type-B receptor 4 (Homo sapiens) (UniProt P54760); assay: Inhibition of human recombinant EphB4 at 40 nM related to control ULK1
T3 sequence (whole entry): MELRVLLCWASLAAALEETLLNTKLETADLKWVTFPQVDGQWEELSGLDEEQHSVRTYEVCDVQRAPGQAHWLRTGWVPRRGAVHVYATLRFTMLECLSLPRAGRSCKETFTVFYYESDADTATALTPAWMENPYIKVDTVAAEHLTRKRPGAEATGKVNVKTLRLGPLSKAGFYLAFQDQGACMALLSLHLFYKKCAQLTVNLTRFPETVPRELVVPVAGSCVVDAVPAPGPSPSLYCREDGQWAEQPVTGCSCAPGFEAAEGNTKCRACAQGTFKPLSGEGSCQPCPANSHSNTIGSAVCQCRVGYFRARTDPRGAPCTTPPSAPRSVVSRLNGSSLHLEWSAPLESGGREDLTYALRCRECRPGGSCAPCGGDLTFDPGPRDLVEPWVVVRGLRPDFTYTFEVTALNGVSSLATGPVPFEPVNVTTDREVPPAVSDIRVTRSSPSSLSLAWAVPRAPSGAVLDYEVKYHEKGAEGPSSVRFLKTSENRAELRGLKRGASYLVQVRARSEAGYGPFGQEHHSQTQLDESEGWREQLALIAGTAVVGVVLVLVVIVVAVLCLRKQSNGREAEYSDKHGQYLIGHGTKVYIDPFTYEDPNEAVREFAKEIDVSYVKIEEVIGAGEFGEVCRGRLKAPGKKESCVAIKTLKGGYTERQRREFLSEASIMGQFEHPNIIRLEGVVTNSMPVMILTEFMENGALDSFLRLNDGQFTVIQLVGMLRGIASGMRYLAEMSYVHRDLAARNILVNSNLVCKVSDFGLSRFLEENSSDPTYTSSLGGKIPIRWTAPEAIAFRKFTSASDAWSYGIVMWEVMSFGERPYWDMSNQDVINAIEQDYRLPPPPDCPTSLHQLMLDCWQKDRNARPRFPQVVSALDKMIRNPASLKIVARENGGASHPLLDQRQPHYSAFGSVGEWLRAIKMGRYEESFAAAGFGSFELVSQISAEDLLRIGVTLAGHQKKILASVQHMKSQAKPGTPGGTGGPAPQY

[9] = target: Receptor tyrosine-protein kinase erbB-2 (Homo sapiens) (UniProt P04626); assay: Inhibition of human recombinant ErbB2 at 40 nM in presence of ATP by radiometric assay relative to control
[10] = target: TGF-beta receptor type-2 (Homo sapiens) (UniProt P37173); assay: Inhibition of human recombinant TGFbR2 at 40 nM in presence of ATP by radiometric assay relative to control
[11] = target: LIM domain kinase 1 (Homo sapiens) (UniProt P53667); assay: Inhibition of human recombinant LIMK1 at 40 nM related to control ULK1
[12] = target: Serine/threonine-protein kinase WNK2 (Homo sapiens) (UniProt Q9Y3S1); assay: Inhibition of human recombinant Wnk2 at 40 nM in presence of ATP by radiometric assay relative to control
Serine/threonine-protein kinase WNK2 (Homo sapiens), sequence (Q9Y3S1 whole entry): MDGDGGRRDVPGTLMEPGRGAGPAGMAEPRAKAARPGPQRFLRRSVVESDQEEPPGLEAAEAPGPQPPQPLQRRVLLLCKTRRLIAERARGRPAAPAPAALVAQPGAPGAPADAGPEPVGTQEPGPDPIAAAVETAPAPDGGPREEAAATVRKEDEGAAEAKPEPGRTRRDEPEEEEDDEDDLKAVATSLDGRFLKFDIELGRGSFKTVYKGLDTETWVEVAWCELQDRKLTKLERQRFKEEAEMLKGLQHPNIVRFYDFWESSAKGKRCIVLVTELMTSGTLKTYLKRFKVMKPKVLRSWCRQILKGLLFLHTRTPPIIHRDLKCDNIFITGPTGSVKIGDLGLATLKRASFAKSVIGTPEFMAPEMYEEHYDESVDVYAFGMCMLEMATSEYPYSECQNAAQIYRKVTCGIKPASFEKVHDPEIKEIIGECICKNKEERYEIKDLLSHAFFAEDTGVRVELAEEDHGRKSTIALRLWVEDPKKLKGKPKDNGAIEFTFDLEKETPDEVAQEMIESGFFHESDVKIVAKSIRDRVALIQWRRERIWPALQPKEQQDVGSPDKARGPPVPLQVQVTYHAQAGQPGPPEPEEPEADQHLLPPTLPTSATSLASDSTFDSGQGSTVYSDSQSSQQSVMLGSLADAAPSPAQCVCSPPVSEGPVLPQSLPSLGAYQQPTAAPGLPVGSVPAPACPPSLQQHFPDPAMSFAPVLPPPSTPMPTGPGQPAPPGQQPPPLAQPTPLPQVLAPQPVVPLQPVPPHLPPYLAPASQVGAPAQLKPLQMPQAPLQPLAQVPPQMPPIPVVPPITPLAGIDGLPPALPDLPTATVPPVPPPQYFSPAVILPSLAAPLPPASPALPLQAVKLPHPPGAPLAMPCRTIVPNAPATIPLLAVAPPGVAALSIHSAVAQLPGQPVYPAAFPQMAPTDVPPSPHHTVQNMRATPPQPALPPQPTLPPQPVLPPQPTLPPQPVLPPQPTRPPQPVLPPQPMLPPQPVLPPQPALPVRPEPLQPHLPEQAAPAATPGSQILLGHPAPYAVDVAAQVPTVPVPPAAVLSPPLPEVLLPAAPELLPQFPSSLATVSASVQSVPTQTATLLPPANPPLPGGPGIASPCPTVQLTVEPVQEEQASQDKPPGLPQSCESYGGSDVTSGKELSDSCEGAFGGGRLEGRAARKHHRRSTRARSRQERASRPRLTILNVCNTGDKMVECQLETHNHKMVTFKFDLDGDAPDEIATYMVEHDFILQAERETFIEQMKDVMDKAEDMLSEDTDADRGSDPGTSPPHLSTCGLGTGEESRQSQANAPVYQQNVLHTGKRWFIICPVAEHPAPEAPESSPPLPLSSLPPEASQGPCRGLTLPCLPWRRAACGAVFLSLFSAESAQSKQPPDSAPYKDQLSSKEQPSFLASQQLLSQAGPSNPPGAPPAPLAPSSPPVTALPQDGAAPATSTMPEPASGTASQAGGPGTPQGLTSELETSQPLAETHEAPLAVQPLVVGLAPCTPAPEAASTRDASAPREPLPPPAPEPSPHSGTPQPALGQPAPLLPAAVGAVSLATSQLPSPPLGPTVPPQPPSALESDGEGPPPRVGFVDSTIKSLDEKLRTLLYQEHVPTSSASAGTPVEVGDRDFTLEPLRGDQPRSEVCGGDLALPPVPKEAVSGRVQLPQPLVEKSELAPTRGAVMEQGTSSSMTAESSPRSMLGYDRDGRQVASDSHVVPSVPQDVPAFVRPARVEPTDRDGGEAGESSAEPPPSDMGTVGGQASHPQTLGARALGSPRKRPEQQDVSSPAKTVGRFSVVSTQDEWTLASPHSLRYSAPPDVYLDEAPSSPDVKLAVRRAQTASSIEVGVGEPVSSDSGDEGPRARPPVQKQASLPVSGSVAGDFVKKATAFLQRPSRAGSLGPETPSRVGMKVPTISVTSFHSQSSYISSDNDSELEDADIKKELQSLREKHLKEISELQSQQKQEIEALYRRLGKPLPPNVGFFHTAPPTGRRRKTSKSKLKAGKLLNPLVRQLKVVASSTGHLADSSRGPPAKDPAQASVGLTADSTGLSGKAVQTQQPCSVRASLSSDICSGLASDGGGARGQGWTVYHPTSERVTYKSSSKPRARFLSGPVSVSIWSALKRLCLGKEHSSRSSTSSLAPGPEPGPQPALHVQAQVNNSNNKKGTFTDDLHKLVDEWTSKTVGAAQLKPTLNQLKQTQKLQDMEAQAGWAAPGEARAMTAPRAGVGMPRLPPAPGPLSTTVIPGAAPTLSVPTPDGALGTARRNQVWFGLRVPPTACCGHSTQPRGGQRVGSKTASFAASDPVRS

Receptor tyrosine-protein kinase erbB-2 (Homo sapiens), sequence (P04626 whole entry): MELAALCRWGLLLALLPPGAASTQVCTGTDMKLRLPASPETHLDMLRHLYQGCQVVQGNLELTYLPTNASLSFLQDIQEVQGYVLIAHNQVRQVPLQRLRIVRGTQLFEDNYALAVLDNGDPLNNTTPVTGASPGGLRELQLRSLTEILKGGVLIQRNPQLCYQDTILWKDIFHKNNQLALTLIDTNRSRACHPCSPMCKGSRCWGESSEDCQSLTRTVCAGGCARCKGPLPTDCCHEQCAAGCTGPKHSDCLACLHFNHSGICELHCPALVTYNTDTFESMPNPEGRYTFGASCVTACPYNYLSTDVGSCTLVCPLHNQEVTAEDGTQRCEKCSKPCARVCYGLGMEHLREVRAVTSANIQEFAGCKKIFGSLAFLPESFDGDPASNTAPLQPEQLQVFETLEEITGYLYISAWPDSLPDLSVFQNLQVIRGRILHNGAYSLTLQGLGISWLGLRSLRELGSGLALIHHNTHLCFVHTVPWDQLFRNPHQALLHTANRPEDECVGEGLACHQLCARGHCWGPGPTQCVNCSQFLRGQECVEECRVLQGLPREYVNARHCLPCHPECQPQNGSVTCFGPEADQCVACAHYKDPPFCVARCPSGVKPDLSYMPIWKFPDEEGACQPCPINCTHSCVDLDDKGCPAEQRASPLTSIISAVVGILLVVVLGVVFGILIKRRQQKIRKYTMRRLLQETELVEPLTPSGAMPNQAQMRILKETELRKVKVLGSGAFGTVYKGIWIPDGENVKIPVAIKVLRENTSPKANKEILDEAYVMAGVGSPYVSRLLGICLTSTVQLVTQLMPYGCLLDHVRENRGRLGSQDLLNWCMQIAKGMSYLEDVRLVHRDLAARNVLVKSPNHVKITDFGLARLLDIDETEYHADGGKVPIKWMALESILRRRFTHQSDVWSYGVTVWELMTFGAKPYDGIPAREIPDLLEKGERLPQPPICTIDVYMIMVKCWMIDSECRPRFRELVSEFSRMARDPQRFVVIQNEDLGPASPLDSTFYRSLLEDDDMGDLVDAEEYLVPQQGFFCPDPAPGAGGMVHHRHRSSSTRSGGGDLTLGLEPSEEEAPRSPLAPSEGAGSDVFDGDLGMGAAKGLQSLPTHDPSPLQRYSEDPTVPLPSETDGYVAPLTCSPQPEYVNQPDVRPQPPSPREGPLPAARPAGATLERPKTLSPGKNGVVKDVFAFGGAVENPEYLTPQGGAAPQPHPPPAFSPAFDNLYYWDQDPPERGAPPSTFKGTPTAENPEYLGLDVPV
TGF-beta receptor type-2 (Homo sapiens), sequence (P37173 whole entry, the tested form may be a part): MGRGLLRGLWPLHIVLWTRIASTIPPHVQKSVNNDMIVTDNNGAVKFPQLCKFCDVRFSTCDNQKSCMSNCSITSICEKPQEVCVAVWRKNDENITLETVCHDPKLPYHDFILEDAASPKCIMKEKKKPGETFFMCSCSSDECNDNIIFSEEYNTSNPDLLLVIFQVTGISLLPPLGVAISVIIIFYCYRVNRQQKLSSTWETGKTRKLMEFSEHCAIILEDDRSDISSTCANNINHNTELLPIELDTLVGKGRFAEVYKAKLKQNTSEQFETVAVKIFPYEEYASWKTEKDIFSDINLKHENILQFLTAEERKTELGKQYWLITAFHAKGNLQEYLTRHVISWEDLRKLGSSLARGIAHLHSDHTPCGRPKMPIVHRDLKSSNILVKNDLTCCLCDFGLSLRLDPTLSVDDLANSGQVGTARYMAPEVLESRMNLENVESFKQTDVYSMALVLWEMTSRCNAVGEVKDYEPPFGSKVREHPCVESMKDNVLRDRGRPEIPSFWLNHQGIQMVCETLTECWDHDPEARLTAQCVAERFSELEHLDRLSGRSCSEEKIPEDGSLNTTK
Serine/threonine-protein kinase 26 (Homo sapiens), sequence (Q9P289 2-416 limits assumed): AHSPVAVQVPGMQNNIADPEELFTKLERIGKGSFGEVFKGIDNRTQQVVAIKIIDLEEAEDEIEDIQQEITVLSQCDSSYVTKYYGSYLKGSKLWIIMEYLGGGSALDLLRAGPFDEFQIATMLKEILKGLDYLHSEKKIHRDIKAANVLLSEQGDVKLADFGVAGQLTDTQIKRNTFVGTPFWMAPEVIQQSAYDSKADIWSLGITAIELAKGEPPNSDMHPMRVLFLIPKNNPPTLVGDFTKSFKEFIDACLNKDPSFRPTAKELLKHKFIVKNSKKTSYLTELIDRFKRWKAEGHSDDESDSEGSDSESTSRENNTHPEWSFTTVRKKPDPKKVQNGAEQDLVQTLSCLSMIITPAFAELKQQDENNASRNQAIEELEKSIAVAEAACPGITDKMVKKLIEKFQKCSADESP
Calcium/calmodulin-dependent protein kinase type 1D (Homo sapiens), sequence (Q8IU85 whole entry, looked up): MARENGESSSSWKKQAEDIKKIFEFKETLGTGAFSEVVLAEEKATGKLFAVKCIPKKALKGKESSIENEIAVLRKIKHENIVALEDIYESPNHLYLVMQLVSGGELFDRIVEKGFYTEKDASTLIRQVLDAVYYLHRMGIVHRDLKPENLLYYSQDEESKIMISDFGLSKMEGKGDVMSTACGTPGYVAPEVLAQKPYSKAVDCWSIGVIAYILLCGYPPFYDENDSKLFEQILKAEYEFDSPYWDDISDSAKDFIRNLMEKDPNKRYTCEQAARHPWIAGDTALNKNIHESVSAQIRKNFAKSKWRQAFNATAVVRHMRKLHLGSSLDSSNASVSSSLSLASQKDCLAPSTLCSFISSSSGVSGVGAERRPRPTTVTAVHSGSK

CNC(=O)c1ccccc1Oc1nc(Nc2cc(OC)c(OC)c(OC)c2)ncc1Br
fold change (FC) [1]: 0
inhibition [2]: 11%
fold change (FC) [3]: 0
fold change (FC) [4]: 0

CC(C)[C@H](NC(=O)c1cc(-c2cnn3cc(-c4ccc(OCCN5CCCCC5)cc4)cnc23)cs1)C(F)(F)F
inhibition [5]: 0%
inhibition [6]: 0%

O=C(N[C@@H](C1CC1)C(F)(F)F)c1cc(-c2cnn3cc(-c4ccc(F)cc4)cnc23)cs1
fold change (FC) [7]: 0
fold change (FC) [8]: 0
inhibition [9]: 0%
inhibition [10]: 47%
fold change (FC) [11]: 0.21
inhibition [12]: 3%
